Assay results reported in patent US6562828B1, “Amidine compounds” (Japan Tobacco Inc., priority 1998, dated 2003).
Counter-ions that a name gives are not always drawn.

What was measured:
Human FXa [1] = molecular target: T1, Human FXa (Homo sapiens, UniProt P00742); test: Intravenous administration test in mouse, human FXa inhibitory activity in serum; assay type: in vivo; conditions: ICR mice, i.v., 1 mg/kg, mean ± S.D., n = 3
T1 construct: Human FXa [Enzyme research Laboratories (USA)] enzyme; purchased Enzyme Research Laboratories (USA)
Description: Intravenous Administration Tests in Mouse
A test compound dissolved in physiological saline was intravenously administered to ICR mice (body weight 20-30 g, 4-6 weeks old) and the activity of the test compound was evaluated based on the human FXa inhibitory activity in serum as an indicator.
At 10, 30, 60, 120 min from the intravenous administration, blood was taken from the eye ground using a hematocrit tube. The blood was centrifuged at 9000 G for 5 min and the obtained serum was used for the determination.
Human FXa inhibitory activity was measured as follows. Human FXa [Enzyme research Laboratories (USA)] enzyme (40 μl, 0.5 U/ml) and a 4-fold diluted plasma sample (40 μl) were incubated in 0.1M Tris-0.2M NaCl buffer (pH 8.4) (40 μl) at 37° C. for 10 min. A synthetic substrate S-2222 (Daiichi Pure Chemical (Tokyo, Japan), 40 μl) adjusted to 0.8 mM was added and the mixture was incubated at 37° C. for 5 min. The reaction was stopped by addition of 60% acetic acid (40 μl) and absorbance at 405 nm was measured by Model 3550 (BIO-RAD). For the control, serum or plasma obtained prior to blood sampling was used for measurement. Human FXa inhibitory activity was calculated as inhibition percentage (%) against control.
Target sequence in this assay (P00742 235-488 limits assumed): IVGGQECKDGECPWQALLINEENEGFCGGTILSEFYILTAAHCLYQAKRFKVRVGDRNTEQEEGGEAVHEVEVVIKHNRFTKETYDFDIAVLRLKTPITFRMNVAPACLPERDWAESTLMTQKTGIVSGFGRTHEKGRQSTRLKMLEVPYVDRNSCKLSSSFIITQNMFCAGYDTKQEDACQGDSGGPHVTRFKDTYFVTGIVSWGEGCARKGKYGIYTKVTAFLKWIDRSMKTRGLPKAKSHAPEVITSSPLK
Target sequence in this assay (P00742 41-179 limits assumed): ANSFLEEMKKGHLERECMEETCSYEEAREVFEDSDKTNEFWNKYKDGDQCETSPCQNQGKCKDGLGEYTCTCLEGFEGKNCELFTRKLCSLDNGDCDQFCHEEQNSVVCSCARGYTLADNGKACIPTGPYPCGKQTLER

Human FXa [2] = molecular target: T1, Human FXa; test: Determination of anti-factor Xa (FXa) activity, synthetic substrate S-2222; assay type: biochemical; conditions: S-2222, 37° C., pH 8.4, read-out: Experimental Example 1: anti-FXa activity, IC50
Description: Determination of Anti-factor Xa (FXa) Activity
Human FXa [Enzyme research Laboratories (USA)] enzyme (40 μl, 0.16U/ml) and test compounds (40 l) adjusted to various concentrations were incubated in 0.1M Tris (Tris-hydroxymethyl-aminomethane) buffer (pH 8.4) containing 0.2M sodium chloride (herein to be referred to as 0.1 M tris-0.2M NaCl buffer) (40 μl) at 37° C. for 10 min. A synthetic substrate S-2222 (Daiichi Pure Chemical (Tokyo, Japan), 40 μl) adjusted to 0.8 mM was added and the mixture was incubated at 37° C. for 10 min. The reaction was stopped by addition of 60% acetic acid (40 μl) and absorbance at 405 nm was measured by Model 3550 (BIO-RAD). For the control, the solvent was used instead of the test compound.
Target sequence in this assay (P00742 235-488 limits assumed): as the sequence (P00742 235-488 limits assumed) above
Target sequence in this assay (P00742 41-179 partner limits assumed): as the sequence (P00742 41-179 limits assumed) above

Human FIIa = molecular target: T2, Human FIIa (Homo sapiens, UniProt P00734); test: Determination of anti-factor IIa (FIIa) activity, synthetic substrate S-2238; assay type: biochemical; conditions: S-2238, 37° C., pH 8.4, read-out: Experimental Example 2: anti-FIIa activity, IC50
T2 construct: purchased Sigma

Compound	inhibition at 1 mg/kg (Human FXa [1]; 10 minutes) [%]	inhibition at 1 mg/kg (Human FXa [1]; 30 minutes) [%]	inhibition at 1 mg/kg (Human FXa [1]; 60 minutes) [%]	inhibition at 1 mg/kg (Human FXa [1]; 120 minutes) [%]	IC50 (Human FXa [2]) [nM]	IC50 (Human FIIa) [nM]
CCOC(=O)C1(COc2ccc3ccc(C(=N)N)cc3c2)CCN(c2ccncc2)CC1 [Example 40, 4-(2-Amidinonaphthalen-7-yloxymethyl)-1-(pyridin-4-yl)piperidine-4-carboxylic Acid Ethyl Ester Dihydrochloride]	–	–	–	–	500	> 10000
N=C(N)N1CCc2ccc(SCC3(C(=O)O)CCN(c4ccncc4)CC3)cc2C1 [Example 43, 4-(2-Amidino-1,2,3,4-tetrahydroisoquinolin-7-ylthiomethyl)-1-(pyridin-4-yl)piperidine-4-carboxylic Acid Dihydrochloride]	–	–	–	–	400	> 10000
N=C(N)N1CCc2ccc(SCCC3(C(=O)O)CCN(c4ccncc4)CC3)cc2C1 [Example 44, 4-[2-(2-Amidino-1,2,3,4-tetrahydroisoquinolin-7-ylthio)ethyl]-1-(pyridin-4-yl)piperidine-4-carboxylic Acid Dihydrochloride]	–	–	–	–	700	> 10000
CC(=N)N1CCC(Oc2ccc(OCc3nc4cc(C(=N)N)ccc4n3CC(=O)c3ccccc3)cc2)CC1 [Example 57, 2-[4-(1-Acetimidoylpiperidin-4-yloxy)phenoxymethyl]-1-phenacylbenzimidazole-5-carboxamidine Dihydrochloride]	–	–	–	–	50	> 10000
CCOC(=O)C(=O)N(Cc1nc2cc(C(=N)N)ccc2n1CC(=O)NC1CCCCC1)C1CCN(c2ccncc2)CC1 [Example 60, 1-(Cyclohexylcarbamoylmethyl)-2-[N-[1-(pyridin-4-yl)piperidin-4-yl]-N-ethoxalylaminomethyl]benzimidazole-5-carboxamidine Dihydrochloride]	–	–	–	–	900	> 10000
N=C(N)c1ccc2c(c1)nc(CN(C(=O)C(=O)O)C1CCN(c3ccncc3)CC1)n2CC(=O)NC1CCCCC1 [Example 61, N-[5-Amidino-1-(cyclohexylcarbamoylmethyl)benzimidazole-2-ylmethyl]-N-[l-(pyridin-4-yl)piperidin-4-yl]aminooxalic Acid Dihydrochloride]	–	–	–	–	300	> 10000
N=C(N)N1CCc2ccc(OCC3CCN(S(=O)(=O)NCc4ccccc4)CC3)cc2C1 [Example 83, N-Benzyl-4-(2-amidino-1,2,3,4-tetrahydroisoquinolin-7-yloxymethyl)piperidine-1-sulfonamide hydrochloride]	–	–	–	–	700	> 10000
N=C(N)N1CCc2ccc(OCC3CCN(c4ccncc4CCC(=O)O)CC3)cc2C1 [Example 89, 3-[4-[4-(2-Amidino-1,2,3,4-tetrahydroisoquinolin-7-yloxymethyl)piperidin-1-yl]pyridin-3-yl]propionic Acid Dihydrochloride]	–	–	–	–	200	> 10000
CCOC(=O)C1(COc2ccc3c(c2)CN(C(=N)N)CC3)CCN(c2ccc(C(=N)N)cc2)CC1 [Example 98, 4-(2-Amidino-1,2,3,4-tetrahydroisoquinolin-7-yloxymethyl)-1-(4-amidinophenyl)-piperidine-4-carboxylic Acid Ethyl Ester Dihydrochloride]	–	–	–	–	400	> 10000

The remaining lines, values ahead:

inhibition at 1 mg/kg (Human FXa [1]; 10 minutes) [%]	inhibition at 1 mg/kg (Human FXa [1]; 30 minutes) [%]	inhibition at 1 mg/kg (Human FXa [1]; 60 minutes) [%]	inhibition at 1 mg/kg (Human FXa [1]; 120 minutes) [%]	IC50 (Human FXa [2]) [nM]	IC50 (Human FIIa) [nM]	Compound
73 ± 1	60 ± 4	40 ± 3	23 ± 5	10	> 10000	CC(=N)N1CCC(Oc2ccc(N(Cc3nc4cc(C(=N)N)ccc4n3CC(=O)Nc3ccc(OCc4ccccc4)cc3)C(=O)c3ccc(C(=O)O)cc3)cc2)CC1 [Example 18, 4-[N-[5-Amidino-1-(4-benzyloxyphenylcarbamoylmethyl)benzimidazol-2-ylmethyl]-N-[4-(1-acetimidoylpiperidin-4-yloxy)phenyl]carbamoyl]benzoic Acid Dihydrochloride]
–	–	–	–	500	> 10000	CC(=N)N1CCC(Oc2ccc(OCc3nc4cc(C(=N)N)ccc4n3CC(=O)NC[C@H]3CC[C@H](C(=O)O)CC3)cc2)CC1 [Example 53, trans-4-[2-[4-(1-Acetimidoylpiperidin-4-yloxy)phenoxymethyl]-5-amidinobenzimidazol-1-ylacetylaminomethyl]cyclohexanecarboxylic Acid Dihydrochloride]
–	–	–	–	100	> 10000	CCOC(=O)CN(Cc1nc2cc(C(=N)N)ccc2n1CC(=O)NC1CCCCC1)c1ccc(OC2CCN(C(C)=N)CC2)cc1 [Example 62, 2-[N-[4-(1-Acetimidoylpiperidin-4-yloxy)phenyl]-N-ethoxycarbonyl-methylaminomethyl]-1-(cyclohexylcarbamoylmethyl)benzimidazole-5-carboxamidine Dihydrochloride]
55 ± 2	43 ± 5	28 ± 6	–	100	> 10000	COC(=O)c1ccc(C(=O)N(Cc2nc3cc(C(=N)N)ccc3n2CC(=O)NC2CCCCC2)c2ccc(OC3CCN(C(=N)N)CC3)cc2)cc1 [Example 64, 2-[N-[4-(1-Amidinopiperidin-4-yloxy)phenyl]-N-(4-methoxycarbonyl-benzoyl)aminomethyl]-1-(cyclohexylcarbamoylmethyl)benzimidazole-5-carboxamidine Dihydrochloride]
55 ± 1	34 ± 2	17 ± 2	–	20	> 10000	N=C(N)c1ccc2c(c1)nc(CN(C(=O)c1ccc(C(=O)O)cc1)c1ccc(OC3CCN(C(=N)N)CC3)cc1)n2CC(=O)NC1CCCCC1 [Example 65, N-[5-Amidino-1-(cyclohexylcarbamoylmethyl)benzimidazol-2-ylmethyl]-N-[4-(1-amidinopiperidin-4-yloxy)phenyl]carbamoylbenzoic Acid Dihydrochloride]
–	–	–	–	200	> 10000	CC(=N)N1CCC(Oc2ccc(N(Cc3nc4cc(C(=N)N)ccc4n3C/C=C/c3ccccc3)C(=O)c3ccc(C(=O)O)cc3)cc2)CC1 [Example 109, N-[5-Amidino-1-(3-phenyl-2-propenyl)benzimidazol-2-ylmethyl]-N-[4-(1-acetimidoylpiperidin-4-yloxy)phenyl]carbamoylbenzoic Acid Dihydrochloride]
49 ± 1	41 ± 8	23 ± 11	–	20	> 10000	CCN=C(N)N1CCC(Oc2ccc(N(Cc3nc4cc(C(=N)N)ccc4n3CC(=O)NC3CCCCC3)C(=O)c3ccc(C(=O)O)cc3)cc2)CC1 [Example 112, N-[5-Amidino-1-(cyclohexylcarbamoylmethyl)benzimidazol-2-ylmethyl]-N-[4-[1-(N-ethylamidino)piperidin-4-yloxy]phenyl]carbamoylbenzoic Acid Dihydrochloride]
